Values quoted from earlier work in patent US20070225217A1, “Methods, compositions, and kits for the treatment of medical conditions” (CombinatoRx, Incorporated, priority 2005, published 2007).

Question: For CO[C@H]1C[C@@H]2CC[C@@H](C)[C@@](O)(O2)C(=O)C(=O)N2CCCC[C@H]2C(=O)O[C@H]([C@H](C)C[C@@H]2CC[C@@H](O)[C@H](OC)C2)CC(=O)[C@H](C)/C=C(\C)[C@@H](O)[C@@H](OC)C(=O)[C@H](C)C[C@H](C)/C=C/C=C/C=C/1C [Rapamycin], which “absorption after oral administration” value is on record?
Answer: absorbed rapidly and completely
